Measured values published in ChEMBL document CHEMBL5344441, “Discovery and Preclinical Pharmacology of NX-2127, an Orally Bioavailable Degrader of Bruton's Tyrosine Kinase with Immunomodulatory Activity for the Treatment of Patients with B Cell Malignancies” (J Med Chem, 2024).
Activity calls are given as the source filed them. The calls are words filed in the database; no cut-off is given here.

Legend:
TMD8 [1] = assay: Antitumor activity against human TMD8 cells expressing wild type BTK xenografted in CB17-SCID mouse assessed as tumor growth inhibition at 30 mg/kg,po administration for 25 days; type: functional; conditions: TMD8, 600 h, time 25 day, read-out: TGI
TMD8 [2] = assay: Antitumor activity against human TMD8 cells expressing BTK C481S mutant xenografted in CB17-SCID mouse assessed as tumor growth inhibition at 30 mg/kg,po administration for 25 days; type: functional; conditions: time 25.0 day
[3] = biological target: T1, Protein cereblon/Tyrosine-protein kinase BTK (Mus musculus) (UniProt P35991+Q8C7D2); assay: In vivo protac activity at CRBN/BTK in BALB/c mouse assessed as remaining BTK protein in splenocyte at 3 mg/kg,po administration measured after 6 hrs by HTRF assay relative to control; type: functional, organism-based
T1 sequence (P35991 whole entry, looked up): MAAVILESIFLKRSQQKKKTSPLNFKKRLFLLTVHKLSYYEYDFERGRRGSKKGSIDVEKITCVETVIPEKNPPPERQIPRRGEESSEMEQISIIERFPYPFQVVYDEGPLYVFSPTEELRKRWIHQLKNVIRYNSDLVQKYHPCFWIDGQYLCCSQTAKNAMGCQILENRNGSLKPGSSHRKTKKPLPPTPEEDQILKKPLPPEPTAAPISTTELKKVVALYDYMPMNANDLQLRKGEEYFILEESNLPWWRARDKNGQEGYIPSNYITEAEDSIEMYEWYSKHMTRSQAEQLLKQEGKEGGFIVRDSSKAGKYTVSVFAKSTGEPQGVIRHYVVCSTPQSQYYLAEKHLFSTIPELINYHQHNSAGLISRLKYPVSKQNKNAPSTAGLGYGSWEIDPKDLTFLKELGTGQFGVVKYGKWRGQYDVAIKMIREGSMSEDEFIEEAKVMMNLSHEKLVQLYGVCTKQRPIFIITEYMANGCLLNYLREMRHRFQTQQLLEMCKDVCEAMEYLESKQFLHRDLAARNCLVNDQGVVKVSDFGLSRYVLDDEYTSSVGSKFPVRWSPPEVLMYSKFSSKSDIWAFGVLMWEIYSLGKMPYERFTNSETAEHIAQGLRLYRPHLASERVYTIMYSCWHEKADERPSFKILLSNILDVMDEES
T1 sequence (Q8C7D2 whole entry, looked up): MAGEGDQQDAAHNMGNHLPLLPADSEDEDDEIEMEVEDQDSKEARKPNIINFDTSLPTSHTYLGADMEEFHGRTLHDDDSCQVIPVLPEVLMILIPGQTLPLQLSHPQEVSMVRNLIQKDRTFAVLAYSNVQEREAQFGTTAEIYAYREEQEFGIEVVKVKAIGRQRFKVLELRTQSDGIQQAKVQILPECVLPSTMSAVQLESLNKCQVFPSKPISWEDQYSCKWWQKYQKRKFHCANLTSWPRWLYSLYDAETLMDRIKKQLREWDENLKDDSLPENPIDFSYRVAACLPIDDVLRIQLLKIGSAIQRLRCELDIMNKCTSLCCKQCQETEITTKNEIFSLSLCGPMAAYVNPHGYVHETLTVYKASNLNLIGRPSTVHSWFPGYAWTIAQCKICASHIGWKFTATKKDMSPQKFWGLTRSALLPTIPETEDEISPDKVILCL

[4] = biological target: T2, Protein cereblon/Tyrosine-protein kinase BTK (Homo sapiens, UniProt Q06187+Q96SW2); assay: PROTAC activity at CRBN/BTK in human Ramos cells assessed as degradation of BTK protein incubated for 4 hrs by HTRF assay; type: cell-based
Target sequence in this assay (Q06187 whole entry): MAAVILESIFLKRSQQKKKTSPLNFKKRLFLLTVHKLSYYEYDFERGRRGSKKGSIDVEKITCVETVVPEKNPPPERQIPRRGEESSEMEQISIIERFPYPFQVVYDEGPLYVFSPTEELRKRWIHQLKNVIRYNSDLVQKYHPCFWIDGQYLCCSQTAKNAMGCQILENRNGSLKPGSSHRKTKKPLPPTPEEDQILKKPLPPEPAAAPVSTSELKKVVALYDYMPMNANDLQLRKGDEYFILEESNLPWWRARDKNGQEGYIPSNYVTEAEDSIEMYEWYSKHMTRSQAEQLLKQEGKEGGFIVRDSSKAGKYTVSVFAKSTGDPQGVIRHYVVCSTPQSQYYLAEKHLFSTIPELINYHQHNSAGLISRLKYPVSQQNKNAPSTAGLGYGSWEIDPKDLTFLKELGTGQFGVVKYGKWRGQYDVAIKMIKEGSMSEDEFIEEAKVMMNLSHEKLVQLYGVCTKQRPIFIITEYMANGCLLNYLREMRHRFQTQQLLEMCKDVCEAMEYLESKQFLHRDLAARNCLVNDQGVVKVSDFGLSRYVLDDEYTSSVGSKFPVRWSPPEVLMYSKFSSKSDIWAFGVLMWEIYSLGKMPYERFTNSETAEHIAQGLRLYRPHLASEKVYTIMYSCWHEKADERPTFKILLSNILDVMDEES
Target sequence in this assay (Q96SW2 whole entry): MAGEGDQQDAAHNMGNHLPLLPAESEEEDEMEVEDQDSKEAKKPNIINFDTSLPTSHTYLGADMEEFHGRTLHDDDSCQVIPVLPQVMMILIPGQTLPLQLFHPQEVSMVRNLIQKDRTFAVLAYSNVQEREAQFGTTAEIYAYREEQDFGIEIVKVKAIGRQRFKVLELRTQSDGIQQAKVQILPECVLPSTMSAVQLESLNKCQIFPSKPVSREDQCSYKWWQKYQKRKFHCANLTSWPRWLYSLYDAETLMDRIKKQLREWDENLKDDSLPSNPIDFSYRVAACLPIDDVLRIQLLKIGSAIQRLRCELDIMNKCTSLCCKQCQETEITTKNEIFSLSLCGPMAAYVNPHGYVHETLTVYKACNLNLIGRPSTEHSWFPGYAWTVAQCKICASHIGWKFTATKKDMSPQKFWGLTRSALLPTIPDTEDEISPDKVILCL

[5] = biological target: T2, Protein cereblon/Tyrosine-protein kinase BTK; assay: PROTAC activity at CRBN/BTK in human Ramos cells assessed as maximal degradation of BTK protein incubated for 4 hrs by HTRF assay relative to control; type: cell-based
Target sequence in this assay (Q06187 2-659 limits assumed): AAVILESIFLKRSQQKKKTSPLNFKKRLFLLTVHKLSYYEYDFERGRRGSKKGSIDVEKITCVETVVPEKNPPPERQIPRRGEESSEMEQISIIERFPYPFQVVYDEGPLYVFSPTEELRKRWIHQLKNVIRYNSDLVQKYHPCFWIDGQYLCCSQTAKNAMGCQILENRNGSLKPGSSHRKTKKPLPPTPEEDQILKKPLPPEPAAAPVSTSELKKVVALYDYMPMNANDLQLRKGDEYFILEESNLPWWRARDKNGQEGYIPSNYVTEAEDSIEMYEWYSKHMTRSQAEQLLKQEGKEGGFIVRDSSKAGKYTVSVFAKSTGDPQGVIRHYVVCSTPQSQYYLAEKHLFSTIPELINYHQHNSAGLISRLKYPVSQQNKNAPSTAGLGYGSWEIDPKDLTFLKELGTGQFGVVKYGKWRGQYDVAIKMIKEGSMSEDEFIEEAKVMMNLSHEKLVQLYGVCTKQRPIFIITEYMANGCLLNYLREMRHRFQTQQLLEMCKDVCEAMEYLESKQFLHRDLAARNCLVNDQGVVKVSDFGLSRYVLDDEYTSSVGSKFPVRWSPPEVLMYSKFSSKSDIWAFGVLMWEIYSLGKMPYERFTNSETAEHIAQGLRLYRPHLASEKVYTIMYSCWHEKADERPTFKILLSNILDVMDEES
Target sequence in this assay (Q96SW2 whole entry partner): as the sequence (Q96SW2 whole entry) above

[6] = biological target: T2, Protein cereblon/Tyrosine-protein kinase BTK; assay: PROTAC activity at CRBN/BTK in human TMD8 cells assessed as degradation of BTK protein incubated for 4 hrs by HTRF assay; type: cell-based
Target sequence in this assay (Q06187 whole entry): as the sequence (Q06187 whole entry) above
Target sequence in this assay (Q96SW2 whole entry): as the sequence (Q96SW2 whole entry) above

[7] = biological target: T2, Protein cereblon/Tyrosine-protein kinase BTK; assay: PROTAC activity at CRBN/BTK in human TMD8 cells assessed as maximal degradation of BTK protein incubated for 4 hrs by HTRF assay relative to control; type: cell-based
Target sequence in this assay (Q06187 2-659 limits assumed): as the sequence (Q06187 2-659 limits assumed) above
Target sequence in this assay (Q96SW2 whole entry partner): as the sequence (Q96SW2 whole entry) above

[8] = biological target: T3, Protein cereblon/Zinc finger protein Aiolos (Homo sapiens, UniProt Q96SW2+Q9UKT9); assay: PROTAC activity at CRBN/IKZF3 in human T cell assessed as maximal degradation of IKZF3 protein incubated for 24 hrs by flow cytometry relative to control; type: cell-based
Target sequence in this assay (Q96SW2 whole entry, looked up): as the sequence (Q96SW2 whole entry) above
Target sequence in this assay (Q9UKT9 whole entry, looked up): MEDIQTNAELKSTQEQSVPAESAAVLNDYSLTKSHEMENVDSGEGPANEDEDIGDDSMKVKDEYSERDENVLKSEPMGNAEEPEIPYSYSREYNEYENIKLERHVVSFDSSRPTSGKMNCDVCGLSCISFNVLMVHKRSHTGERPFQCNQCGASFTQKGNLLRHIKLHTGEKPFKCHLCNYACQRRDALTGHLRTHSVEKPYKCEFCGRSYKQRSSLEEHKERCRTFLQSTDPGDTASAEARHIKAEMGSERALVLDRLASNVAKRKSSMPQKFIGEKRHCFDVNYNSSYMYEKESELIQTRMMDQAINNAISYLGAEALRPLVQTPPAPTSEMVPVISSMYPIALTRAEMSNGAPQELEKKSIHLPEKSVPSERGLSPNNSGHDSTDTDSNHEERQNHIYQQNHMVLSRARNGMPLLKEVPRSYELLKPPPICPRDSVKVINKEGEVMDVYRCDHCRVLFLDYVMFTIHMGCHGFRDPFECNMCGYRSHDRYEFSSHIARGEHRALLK

[9] = biological target: T1, Protein cereblon/Tyrosine-protein kinase BTK (Mus musculus); assay: In vivo protac activity at CRBN/BTK in BALB/c mouse assessed as remaining BTK protein in blood at 3 mg/kg,po administration measured after 6 hrs by flow cytomtery relative to control; type: functional, organism-based
[10] = biological target: T3, Protein cereblon/Zinc finger protein Aiolos; assay: PROTAC activity at CRBN/IKZF3 in human T cell assessed as degradation of IKZF3 protein incubated for 24 hrs by flow cytometry; type: cell-based
Target sequence in this assay (Q96SW2 whole entry): as the sequence (Q96SW2 whole entry) above
Target sequence in this assay (Q9UKT9 whole entry): as the sequence (Q9UKT9 whole entry, looked up) above

Row | SMILES | inhibition in vivo at 30 mg/kg (TMD8 [1]) [%] | Activity (TMD8 [2]) | Activity [3] [%] | DC50 [4] [nM] | Emax [5] [%] | DC50 [6] [nM] | Emax [7] [%] | Emax [8] [%] | Activity [9] [%] | DC50 [10] [nM]
1 | C=CC(=O)N1CCC[C@@H](n2nc(-c3ccc(Oc4ccccc4)cc3)c3c(N)ncnc32)C1 [IBRUTINIB] | 55 | inactive | – | – | – | – | – | – | – | –
2 | CN1CCN([C@@H]2CCCN(c3cnc(C(N)=O)c(Nc4ccc(N5CCC6(CC5)CCN(c5ccc7c(c5)C(=O)N(C5CCC(=O)NC5=O)C7=O)CC6)cc4)n3)C2)C1=O (stereo partly drawn) | – | – | 18 | 0.9 | 96 | 1.3 | 96 | – | – | –
3 | CN1CCN([C@@H]2CCCN(c3cnc(C(N)=O)c(Nc4ccc(C5CCN(C(=O)CCOCCNc6cccc7c6C(=O)N(C6CCC(=O)NC6=O)C7=O)CC5)cc4)n3)C2)C1=O (stereo partly drawn) | – | – | – | 6.3 | 80 | – | – | 99 | – | –
4 | CN1CCN([C@@H]2CCCN(c3cnc(C(N)=O)c(Nc4ccc(C5CCN(C[C@@H]6CCN(c7ccc8c(c7)C(=O)N(C7CCC(=O)NC7=O)C8=O)C6)CC5)cc4)n3)C2)C1=O (stereo partly drawn) | – | – | – | 1.2 | 93 | – | – | – | – | –
5 | CN1CCN([C@@H]2CCCN(c3cnc(C(N)=O)c(Nc4ccc(C5CCN(C6CN(c7ccc8c(c7)C(=O)N(C7CCC(=O)NC7=O)C8=O)C6)CC5)cc4)n3)C2)C1=O (stereo partly drawn) | – | – | – | 1.4 | 91 | 1.2 | 96 | 74 | 35 | 32
6 | CN1CCN([C@@H]2CCCN(c3cnc(C(N)=O)c(Nc4ccc5c(c4)CCN(CC4CCN(c6ccc7c(c6)C(=O)N(C6CCC(=O)NC6=O)C7=O)CC4)C5)n3)C2)C1=O (stereo partly drawn) | – | – | – | 2.4 | 95 | 1.2 | 96 | 86 | 68 | 14
7 | CN1CCN([C@@H]2CCCN(c3cnc(C(N)=O)c(Nc4cnn(C5CCN(CC6CCN(c7ccc8c(c7)C(=O)N(C7CCC(=O)NC7=O)C8=O)CC6)CC5)c4)n3)C2)C1=O (stereo partly drawn) | – | – | – | – | – | 0.63 | 96 | – | 48 | –
8 | CN1CCN([C@@H]2CCCN(c3cnc(C(N)=O)c(Nc4ccc(N5CC6(C5)CN(c5ccc7c(c5)C(=O)N(C5CCC(=O)NC5=O)C7=O)C6)cc4)n3)C2)C1=O (stereo partly drawn) | – | – | – | 0.9 | 94 | 0.8 | 97 | 83 | – | 14
9 | CN1CCN([C@@H]2CCCN(c3cnc(C(N)=O)c(Nc4ccc(C5CN(C6CCN(c7ccc8c(c7)C(=O)N(C7CCC(=O)NC7=O)C8=O)CC6)C5)cc4)n3)C2)C1=O (stereo partly drawn) | – | – | – | 0.9 | 95 | 0.53 | 96 | 79 | 26 | 28
10 | CN1CCN([C@@H]2CCCN(c3cnc(C(N)=O)c(Nc4ccc(C5CCN(CC6CN(c7ccc8c(c7)C(=O)N(C7CCC(=O)NC7=O)C8=O)C6)CC5)cc4)n3)C2)C1=O (stereo partly drawn) | – | – | – | 0.8 | 97 | – | – | – | – | –
11 | CN1CCN([C@@H]2CCCN(c3cnc(C(N)=O)c(Nc4ccc(C5CCN(C[C@H]6CC[C@H](Nc7cccc8c7C(=O)N(C7CCC(=O)NC7=O)C8=O)CC6)CC5)cc4)n3)C2)C1=O (stereo partly drawn) | – | – | – | 1.6 | 90 | – | – | 85 | – | 40
12 | CN1CCN([C@@H]2CCCN(c3cnc(C(N)=O)c(Nc4ccc(N5CCC6(CCN(c7ccc8c(c7)C(=O)N(C7CCC(=O)NC7=O)C8=O)CC6)CC5)nc4)n3)C2)C1=O (stereo partly drawn) | – | – | – | – | – | 4.3 | 94 | – | 96 | –
13 | CN1CCN([C@@H]2CCCN(c3cnc(C(N)=O)c(Nc4ccc(C5CCN(Cc6ccc7c(c6)C(=O)N(C6CCC(=O)NC6=O)C7=O)CC5)cc4)n3)C2)C1=O (stereo partly drawn) | – | – | – | – | – | 17 | 76 | – | – | –
